“Also recorded” adds a separate entry of the source. Where a SMILES comes first, the peptide text is derived from it.
Assays:
[1] = Fate of radiolabeled (3H/14C) peptide after injection into the animal; type: in vivo; details: no matter the route of administration
From the text: Lytic peptides are active in eliminating tumor-derived cells by causing direct osmotic lysis. […] Indeed, that is the case. […] However, in some cases there was little activity. To determine what might be happening in vivo, radiolabeled D2A21 was chemically synthesized with all alanines labeled with either ^3H or ^14C. Since the labeling pattern was asymmetric, it enabled us to follow the physical state of the peptide once it had been injected into the animal by comparing the unique ratios of ^3H/^14C that would result if the peptide experienced proteolysis. […] The possibility emerged that the systemic in vivo anti-cancer activity was retained within specific fragments of D2A21.

[2] = tested on: Stage IV pancreatic cancer; details: cited from earlier work
[3] = tested on: angiogenesis in Matrigel deposits imbibed with fibroblast growth factor 1 (FGF1); assay: Matrigel deposit angiogenesis assay (FGF1-loaded Matrigel implanted in mice, histology score); type: in vivo; set-up: key to top level score reached in Matrigel deposits: ++++: This system ranks each sample using a 0 to 4 plus (+) scale; B in FIG. 13 would yield a score of +++; no + sign would yield a value of 0, as in A in FIG. 13; details: for angiogenic activity score, Sample 1 / angiogenic activity score, Sample 2 / angiogenic activity score, Sample 3 / angiogenic activity score, Sample 4 / angiogenic activity score, Sample 5 / angiogenic activity score, Sample 6 / angiogenic activity score, Sample 7 / angiogenic activity score, Sample 8 / top level score reached in Matrigel deposits: 0 to 4 plus scale; for angiogenic activity score, Sample 1 / angiogenic activity score, Sample 2 / angiogenic activity score, Sample 3 / angiogenic activity score, Sample 4 / angiogenic activity score, Sample 5 / angiogenic activity score, Sample 6 / angiogenic activity score, Sample 7 / angiogenic activity score, Sample 8 / angiogenic / anti-angiogenic activity in Matrigel deposit (in words): 20 μg peptide IP daily; for angiogenic activity score, Sample 1 / angiogenic activity score, Sample 2 / angiogenic activity score, Sample 3 / angiogenic activity score, Sample 4 / angiogenic activity score, Sample 5 / angiogenic activity score, Sample 6 / angiogenic activity score, Sample 7 / angiogenic activity score, Sample 8: Day 14 histology; for % Diff.: difference of mean score from control (2.50); for angiogenic / anti-angiogenic activity in Matrigel deposit (in words): histology, Day 14; for angiogenic activity score, Mean: mean of samples, control mean 2.50
From the text: Matrigel deposits were surgically implanted on both sides of 4 mice per treatment yielding a possible 8 samples per treatment. Matrigel is a polymeric substance that appears to be relatively inert in animals and it can serve as a matrix that allows experimentation in vivo on many different difficult-to-study-processes. Prior to implantation, the Matrigel was allowed to imbibe fibroblast growth factor 1 (FGF1). This protein is a powerful inducer of angiogenesis and its presence guarantees that sufficient activity will be observed within the allotted time period of the experiment. Therefore, any inhibition of angiogenesis is likely to be a real phenomenon as the experiment has been set to heavily favor the angiogenic process. Angiogenesis occurs by day 14 and beginning Day 1 (Day 0=day of implantation), mice were injected IP daily with 20 μg of peptide in 100 μl of normal saline. The animals were sacrificed on Day 14, and each Matrigel deposit divided longitudinally and fixed in 10% buffered formalin. One of the halves of each Matrigel deposit was then sectioned. Read-out for this experiment was via histology, with semi-quantitative/qualitative counting of migration of cells and their subsequent assembly of lumenal structures within the Matrigel. This method allows us to observe the full physiologic spectrum of effects, and was useful in delineating trends. […] In FIG. 13, A represents what a section of a Matrigel gel deposit looks like under the microscope soon after surgical implantation. The sample in B is derived from the control at the conclusion of the experiment. Intense activity is present with numerous cells attaching to the surface of the Matrigel. Cells begin to penetrate the deposit and organize into discrete structures that coalesce to form the beginning of tubes twisting and branching in many directions. These venules eventually connect with the system carrying blood and it is possible to see red cells and lymphocytes within them. This process is called “arborization”, derived from the fact that the angiogenic process most closely resembles the growth of roots and branches of trees. All but two of the peptide treatments looked, more or less, like B (all the peptides of Table 1 were tested). In C, a typical sample from the peptide C-1 treatment is shown. […] Consequently, there were far fewer cells and cellular structures inside of the Matrigel. […] There were large regions of Matrigel that had no visibly associated structures and few single cells, including on the periphery, while other regions had some limited activity.
This system ranks each sample using a 0 to 4 plus (+) scale. Thus, B in FIG. 13 would yield a score of +++ while no + sign would yield a value of 0, as in A in FIG. 13. In Table 3 the data is modified to a numerical form and plotted averages are shown.

[4] = tested on: HMEC-1 monolayer; assay: Endothelial cell migration assay (scraped HMEC-1 monolayer); type: cell-based; details: NT = 1.00
Experimental: The results in Table 6 are gathered from an in vitro experiment and show the ability of JC 15 10N to inhibit the migration of endothelial cells (the “minus” values). This migration is a requisite step in the formation of new blood vessels. […] The shading indicates the presence of VEGF ([…] endothelial growth factor). This growth factor causes endothelial cell migration and consequent assembly of blood vessels.
Cell migration was performed as previously described. In brief, a HMEC-1 monolayer was scraped making a 1-mm wide denuded area then stimulated with VEGF and 10N and the area unoccupied by the migrating cells was determined using MetaMorph and expressed as a percentage of control.

| Compound | time to hydrolysis of labeled peptide to fragments of various lengths [1] | longest survival on treatment ([2]; patients with Stage IV pancreatic cancer on gemcitabine treatment) [months] | Median survival time ([2]; patients with Stage IV pancreatic cancer treated with gemcitabine (untreated 4.5 months)) [months] | angiogenic activity score, Sample 1 [3] | angiogenic activity score, Sample 2 [3] | angiogenic activity score, Sample 3 [3] | angiogenic activity score, Sample 4 [3] | angiogenic activity score, Sample 5 [3] | angiogenic activity score, Sample 6 [3] | angiogenic activity score, Sample 7 [3] | angiogenic activity score, Sample 8 [3] | % Diff. [3] [%] | angiogenic / anti-angiogenic activity in Matrigel deposit (in words) [3] | angiogenic activity score, Mean [3] | top level score reached in Matrigel deposits [3] | Endothelial Cell Migration ([4]; VEGF 75 ng/ml, second series) | Endothelial Cell Migration ([4]; VEGF 150 ng/ml, first series) | Endothelial Cell Migration ([4]; VEGF 150 ng/ml, third series) |
| --- | --- | --- | --- | --- | --- | --- | --- | --- | --- | --- | --- | --- | --- | --- | --- | --- | --- | --- |
| C[C@H](NC(=O)[C@H](Cc1ccccc1)NC(=O)[C@H](C)NC(=O)[C@H](Cc1ccccc1)NC(=O)[C@H](CCCCN)NC(=O)[C@H](C)NC(=O)[C@H](Cc1ccccc1)NC(=O)[C@H](CCCCN)NC(=O)[C@H](CCCCN)NC(=O)[C@H](C)NC(=O)[C@H](Cc1ccccc1)NC(=O)[C@H](CCCCN)NC(=O)[C@H](CCCCN)NC(=O)[C@H](Cc1ccccc1)NC(=O)[C@H](CCCCN)NC(=O)[C@H](CCCCN)NC(=O)[C@H](C)NC(=O)[C@H](Cc1ccccc1)NC(=O)[C@H](CCCCN)NC(=O)[C@H](CCCCN)NC(=O)[C@H](C)NC(=O)[C@@H](N)Cc1ccccc1)C(=O)N[C@@H](Cc1ccccc1)C(=O)O [JC15] (H-FAKKFAKKFKKFAKKFAKFAFAF-OH; N-terminus and C-terminus assumed) | within minutes |  |  |  |  |  |  |  |  |  |  |  |  |  |  |  |  |  |
| Nc1ccn([C@@H]2O[C@H](CO)[C@@H](O)C2(F)F)c(=O)n1 [gemcitabine] |  | 19 | 4.8 |  |  |  |  |  |  |  |  |  |  |  |  |  |  |  |
| FAKKFAKFAF [JC15-10C] |  |  |  | 2 | 3 | 2 | 3 | 2 | 3 | 2 | 3 | 0.00 | inactive | 2.50 |  |  |  |  |
| FAKKFAKKFKKF [JC15-12N] |  |  |  | 4 | 2 | 3 | 2 | 3 | 2 | 3 |  | 8.57 | levels of activity higher than the control; also recorded: cannot exert an anti-angiogenic effect | 2.71 | ++++ |  |  |  |
| FAKKFAKKFKKFAKKFAK [JC15-18N] |  |  |  | 3 | 2 | 3 | 3 |  |  |  |  | 10.00 | levels of activity higher than the control; also recorded: cannot exert an anti-angiogenic effect | 2.75 |  |  |  |  |
| IVRRADRAAVPIVNLKDELL [C-1] |  |  |  | 2 | 2 | 3 | 1 | 2 | 1 |  |  | −26.67 | far fewer cellular associations; also recorded: possess anti-angiogenic activity | 1.83 |  |  |  |  |
| KKFKKFAKKFAKFAF [JC15-15C] |  |  |  | 2 | 3 | 2 | 3 | 2 | 3 | 3 | 4 | 10.00 | levels of activity higher than the control; also recorded: cannot exert an anti-angiogenic effect | 2.75 | ++++ |  |  |  |
| LDLQAPLYKKIIKKLLES [PF-2] |  |  |  | 2 | 3 | 2 | 3 |  |  |  |  | 0.00 |  | 2.50 |  |  |  |  |
| MFGNGKGYRGKRATTVTGTP [PL-2] |  |  |  | 2 | 3 | 2 | 3 | 2 | 3 | 2 |  | −2.86 |  | 2.43 |  |  |  |  |
| PTAQLIATLKNGRKI [PF-1] |  |  |  | 2 | 3 | 2 | 3 |  |  |  |  | 0.00 |  | 2.50 |  |  |  |  |
| QAWDSQSPHAHGYIPSKFPNKNLKKNY [PL-1] |  |  |  | 2 | 3 | 2 | 3 | 2 | 3 | 2 | 3 | 0.00 |  | 2.50 |  |  |  |  |
| vascular endothelial growth factor [VEGF, reference compound] |  |  |  |  |  |  |  |  |  |  |  |  |  |  |  | 0.69 | 0.78 | 0.77 |
